Source: patent US6646006B2, “Enhancement of vascular function by modulation of endogenous nitric oxide production or activity” (The Board of Trustees of the Leland Stanford Junior …, priority 1993, dated 2003)
Entries after “also recorded” stand apart in the source; their conditions may differ.

Key:
coronary arteries = assay: Coronary response to intracoronary acetylcholine after intravenous L-arginine in cardiac transplant recipients; assay type: in vivo, human
Experimental: Cardiac transplant recipients scheduled for elective annual coronary angiography at Stanford University hospital were screened for possible participation in the study. The study protocol was approved by the Stanford University Committee on Human Subjects in Medical Research. All patients gave written informed consent. Eighteen patients who had cardiac transplantation 1 to 13 years previously were studied.
Vasoactive medications were discontinued at least 12 hours before the study. […] An infusion catheter was then advanced over a Doppler flow velocity guide wire into a nonbranching segment of the coronary artery for infusion of acetylcholine (which stimulates the endothelium to release NO). After baseline angiography was performed, increasing concentrations of acetylcholine were serially infused over 3 minutes. Infusion of acetylcholine continued until the maximum dose (10^−4 mol/L) was reached or until total coronary occlusion occurred. Then an intravenous infusion of L-arginine (30 g over 15 minutes) was performed. Thereafter, the intracoronary infusion of acetylcholine was repeated. Coronary angiography and Doppler flow velocity recording was performed at the end of the L-arginine infusion and after the infusion of each concentration of acetylcholine.

[1] = tested on: hypercholesterolemic rabbits; assay: Balloon angioplasty of the iliac artery in hypercholesterolemic rabbits, oral arginine; assay type: in vivo, rabbit
Excerpt: Methods. Twenty-eight New Zealand white rabbits were randomized into one of three dietary groups and received either normal rabbit chow, 0.5% cholesterol diet, or 0.5% cholesterol diet plus L-arginine hydrochloride (2.25% W/V) in the drinking water. After six weeks of dietary intervention, left iliac artery of each animal was subjected to a balloon angioplasty. Four weeks later, the iliac arteries were harvested for vascular reactivity studies and immunohistochemistry.

[2] = tested on: forearm resistance vessels; assay: Forearm blood flow response to methacholine (plethysmography) after intravenous L-arginine; assay type: in vivo, human
Excerpt: The control subject population in this study included 11 normal volunteers comprising (10 males and 1 female). Their ages ranged from 31 to 49 and averaged 39±2 yr. There were 14 patients with hypercholesterolemia. Hypercholesterolemia was defined as a serum LDL cholesterol level greater than the 75th percentile adjusted for age and sex. These individuals included 11 males and 3 females whose ages ranged from 22 to 48 and averaged 38±2 years.
Under local anesthesia and sterile conditions, a polyethylene catheter was inserted into a brachial artery of each subject for determination of blood pressure and for infusion of drugs. A separate polyethylene catheter was inserted into the antecubital vein for infusion of L-arginine. Bilateral forearm blood flow was determined by venous occlusion strain gauge plethysmography, using calibrated mercury-in-silastic strain gauges, and expressed as ml/100 ml tissue per min.
To assess NO-dependent vasodilation, methacholine chloride (which induces the endothelium to release NO) was administered via the brachial artery. Forearm blood flow was measured during infusion of methacholine chloride at concentrations of 0.3, 3, and 10 μg/min each for 3 min.
After completion of the methacholine chloride infusions, all normal subjects and 10 individuals with hypercholesterolemia were given L-arginine intravenously over 30 minutes and then the methacholine infusions were repeated. D-arginine, the enantiomer of L-arginine, is not a precursor of NO. Thus, to ensure that any observed effects of L-arginine were due to its contribution to the synthesis of NO and not just secondary to its physiochemical properties, five individuals with hypercholesterolemia received D-arginine intravenously.

[3] = tested on: hypercholesterolemic rabbits; assay: Regression of pre-existing atherosclerosis in hypercholesterolemic rabbits; assay type: in vivo, rabbit; conditions: for Lesion surface area of thoracic aortae: all arginine treated animals weeks 14-23 vs vehicle
Excerpt: This is clinically important if arginine is to be useful in the treatment of pre-existing atherosclerosis in humans. Accordingly, New Zealand white rabbits (n=85) received normal chow or 0.5% cholesterol chow for 10 weeks. Subsequently, half of the hypercholesterolemic rabbits were given 2.25% (W/V) L-arginine in their drinking water. Thoracic aortae were harvested at weeks 10, 14, 18, or 23. Rings of aorta were used to assess NO-dependent vasodilation to acetylcholine (ACh). Maximal relaxation to ACh in the hypercholesterolemic rabbits receiving vehicle (CHOL) became progressively attenuated from 53.4% (at week 10) to 17.4% (by week 23). […] By contrast, hypercholesterolemic animals receiving arginine (ARG) manifested improved endothelium-dependent relaxation associated with a reduction of plaque area at 14 and 18 weeks.

[4] = tested on: rabbit aortic endothelium; assay: Ex vivo binding of WEHI 78/24 monocytoid cells to rabbit aortic endothelium; assay type: in vivo; conditions: two weeks, L-arginine supplementation
Excerpt: Methods. Animals. Male New Zealand White rabbits were pair fed, receiving one of the following dietary interventions for two weeks: normal rabbit chow (Cont, n=7); rabbit chow enriched with 1% cholesterol (Chol, n=7); or 1% cholesterol chow supplemented with 2.25% L-arginine HCl in the drinking water (Arg, n=7) ad libitum throughout the course of the study. […] One day before sacrifice (after 2 weeks of dietary intervention), animals were lightly sedated and the central ear artery was cannulated for collection of blood samples.
Mononuclear cell culture and isolation. Murine monocytoid cells, WEHI 78/24 cells were grown in Dulbecco's Modified Eagle's Medium supplemented 10% fetal calf serum (vol/vol) and were kept in an atmosphere of 5% CO2/95% air. Prior to binding studies, mononuclear cells were fluorescently labeled with TRITC (3 μg/ml). To confirm the results using WEHI cells, in some studies binding studies were performed in parallel using rabbit mononuclear cells. Mononuclear cells were isolated from fresh whole blood of Control rabbits before sacrifice.
Preparation of aortic endothelium and binding assay. […]
After 10 minutes the HBSS medium was replaced by binding medium containing WEHI cells. […] The aortic segments were then removed and placed on a glass slide, and adherent cells counted under epifluorescent microscopy from at least 30 sites on each segment.

[5] = tested on: hypercholesterolemic rabbits; assay: Oral arginine in cholesterol-fed rabbits: biochemical and physiological measurements; assay type: in vivo, rabbit; conditions: 1% cholesterol diet + 2.25% L-arginine HCl in drinking water, vs Control or Chol diet
Excerpt: Study design: (See, Cooke et al., 1992, supra) Male New Zealand white rabbits (n=49) were assigned to one of three treatment groups: 10 were fed with normal rabbit chow for ten weeks (Control); 19 received chow enriched with 1% cholesterol (Chol); and 20 received a 1% cholesterol diet supplemented with 2.25% L-arginine hydrochloride in the drinking water (Arg.). […] Subsequently the animals were sacrificed and the left main coronary artery and the thoracic aorta were harvested for studies of vascular reactivity and histomorphometry. In some animals, blood was collected for studies of platelet and monocyte reactivity.
Results: Biochemical and physiological measurements. […] Serum cholesterol measurements were elevated equally in both groups receiving the 1% cholesterol diet [50±6 vs. 1629±422 vs. 1852±356 mg/dl respectively for Control (=10), Chol (=13), and Arg (=14)].

[6] = tested on: hypercholesterolemic rabbits; assay: Local intraluminal arginine after iliac artery angioplasty in cholesterol-fed rabbits; assay type: in vivo, rabbit; conditions: local infusion 6 mM, four weeks
Excerpt: FIG. 8 is a histogram showing the effect of local-intraluminal administration of arginine on restenosis. Hypercholesterolemic rabbits had balloon angioplasty of the iliac artery. Immediately thereafter some animals received an infusion of arginine directly into the vessel by means of a catheter designed to apply high local concentrations of arginine to the vessel. Two to four weeks later, vessels were removed from the animals, and examined microscopically. Thickening of the vessel wall (internal thickening or “restenosis”) was reduced in the animals treated with intraluminal infusion of arginine (ARG) in comparison to those treated with vehicle. (See Ex. 12)
To determine if intraluminal application of arginine to the vessel wall at the time of balloon angioplasty could inhibit lesion formation, the following study was performed. Rabbits (n=7) were fed a 1% cholesterol diet. After one week, angioplasty of the iliac arteries was performed. After angioplasty of one iliac artery, a local infusion catheter was used to expose the injured area to a high concentration of arginine (6 mM). The other iliac artery was subjected to balloon angioplasty, but not treated with a local infusion. After four weeks, the vessels were harvested, and segments of the arteries processed for histomorphometry.

N=C(N)NCCC[C@H](N)C(=O)O [L-arginine]
complications or side-effects of the infusion (coronary arteries; 30 g i.v. over 15 minutes): no complications or side-effects | Epicardial coronary vasoconstriction caused by acetylcholine (coronary arteries; acetylcholine 10^−4 mol/L, after L-arginine 30 g i.v. over 15 minutes): −2.8% | increase in coronary blood flow to acetylcholine (coronary arteries; after L-arginine 30 g i.v.): significantly enhanced; also recorded: improved | intimal thickening in injured vessels ([1]; four weeks after balloon angioplasty): reduced | accumulation of macrophages in the lesion ([1]; four weeks after balloon injury, ARG vs CHOL): substantially inhibited; also recorded: significantly reduced | endothelium-derived NO activity (bioassay) ([1]; iliac artery, hypercholesterolemic animals): partially restored | augmentation of the vasodilation to methacholine chloride ([2]; hypercholesterolemic subjects, intravenous over 30 minutes): 25% | complications or side-effects of the infusions ([2]; intravenous): no complications or side-effects | vasodilation during methacholine chloride ([2]; normal subjects, intravenous over 30 minutes): did not potentiate | plaque area of total surface of thoracic aorta ([3]; 23 weeks, 3 of 7 ARG animals with persistent improvement): 5.4% | generation of vascular NO ([3]; ARG animals): increased generation | generation of vascular superoxide anion ([3]; ARG animals): reduced generation | plaque area ([3]; ARG animals at 14 and 18 weeks): reduction | endothelium-dependent relaxation ([3]; ARG animals, 14 and 18 weeks): improved | Lesion surface area of thoracic aortae [3]: significantly reduced | Lesion surface area of thoracic aortae ([3]; listed as arginine): reduced | increased WEHI cell binding to aortic endothelium of hypercholesterolemic animals [4]: significantly attenuated | plasma arginine levels [5]: twofold elevation | thickening of the vessel wall in arginine-treated vessels [6]: significantly reduced
